Assay results taken from ChEMBL document CHEMBL5390283, “Discovery of PVD-06 as a Subtype-Selective and Efficient PTPN2 Degrader” (J Med Chem, 2023).

target: T1, von Hippel-Lindau disease tumor suppressor/Tyrosine-protein phosphatase non-receptor type 2 (Homo sapiens, UniProt P17706+P40337); assay: PROTAC activity at VHL/PTPN2 in human Jurkat cells assessed as induction of PTPN2 degradation at 100 nM by Western blot analysis relative to control; type: cell-based
Target sequence in this assay (P17706 whole entry, looked up): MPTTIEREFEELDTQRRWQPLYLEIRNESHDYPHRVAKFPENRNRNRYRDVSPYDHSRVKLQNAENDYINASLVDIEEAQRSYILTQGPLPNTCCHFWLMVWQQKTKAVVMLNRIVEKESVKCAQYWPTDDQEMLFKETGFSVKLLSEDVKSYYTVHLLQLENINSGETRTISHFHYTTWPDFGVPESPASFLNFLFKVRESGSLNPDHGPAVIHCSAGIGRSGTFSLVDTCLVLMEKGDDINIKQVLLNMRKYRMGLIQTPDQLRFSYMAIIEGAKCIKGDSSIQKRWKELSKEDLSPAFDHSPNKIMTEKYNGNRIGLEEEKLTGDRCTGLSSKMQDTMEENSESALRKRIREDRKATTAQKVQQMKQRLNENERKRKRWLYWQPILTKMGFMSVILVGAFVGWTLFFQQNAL
Target sequence in this assay (P40337 whole entry, looked up): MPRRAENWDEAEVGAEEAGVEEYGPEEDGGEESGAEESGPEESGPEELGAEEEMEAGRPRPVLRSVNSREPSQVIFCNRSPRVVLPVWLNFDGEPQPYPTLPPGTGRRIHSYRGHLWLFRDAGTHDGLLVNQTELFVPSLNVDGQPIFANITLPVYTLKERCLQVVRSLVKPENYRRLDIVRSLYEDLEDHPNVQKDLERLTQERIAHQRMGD

SMILES | Activity
Cc1ncsc1-c1ccc([C@H](C)NC(=O)[C@@H]2C[C@@H](O)CN2C(=O)[C@@H](NC(=O)CCNC2CCN(C(=O)Cn3cc(-c4ccc5cc(O)c(N6CC(=O)NS6(=O)=O)c(F)c5c4)cn3)CC2)C(C)(C)C)cc1 | 15%
Cc1ncsc1-c1ccc([C@H](C)NC(=O)[C@@H]2C[C@@H](O)CN2C(=O)[C@@H](NC(=O)CNC2CCN(C(=O)Cn3cc(-c4ccc5cc(O)c(N6CC(=O)NS6(=O)=O)c(F)c5c4)cn3)CC2)C(C)(C)C)cc1 | -17%
Cc1ncsc1-c1ccc([C@H](C)NC(=O)[C@@H]2C[C@@H](O)CN2C(=O)[C@@H](NC(=O)c2cn(CCCNC(=O)Cn3cc(-c4ccc5cc(O)c(N6CC(=O)NS6(=O)=O)c(F)c5c4)cn3)nn2)C(C)(C)C)cc1 | -2%
Cc1ncsc1-c1ccc([C@H](C)NC(=O)[C@@H]2C[C@@H](O)CN2C(=O)[C@@H](NC(=O)CNC(=O)Cn2cc(-c3ccc4cc(O)c(N5CC(=O)NS5(=O)=O)c(F)c4c3)cn2)C(C)(C)C)cc1 | -18%
Cc1ncsc1-c1ccc([C@H](C)NC(=O)[C@@H]2C[C@@H](O)CN2C(=O)[C@@H](NC(=O)CCCCCCNC(=O)Cn2cc(-c3ccc4cc(O)c(N5CC(=O)NS5(=O)=O)c(F)c4c3)cn2)C(C)(C)C)cc1 | 40%
Cc1ncsc1-c1ccc([C@H](C)NC(=O)[C@@H]2C[C@@H](O)CN2C(=O)[C@@H](NC(=O)CCCCCCCCNC(=O)Cn2cc(-c3ccc4cc(O)c(N5CC(=O)NS5(=O)=O)c(F)c4c3)cn2)C(C)(C)C)cc1 | 27%
Cc1ncsc1-c1ccc([C@H](C)NC(=O)[C@@H]2C[C@@H](O)CN2C(=O)[C@@H](NC(=O)CCCNC(=O)Cn2cc(-c3ccc4cc(O)c(N5CC(=O)NS5(=O)=O)c(F)c4c3)cn2)C(C)(C)C)cc1 | 26%
Cc1ncsc1-c1ccc([C@H](C)NC(=O)[C@@H]2C[C@@H](O)CN2C(=O)[C@@H](NC(=O)CCCCNC(=O)Cn2cc(-c3ccc4cc(O)c(N5CC(=O)NS5(=O)=O)c(F)c4c3)cn2)C(C)(C)C)cc1 | 29%
Cc1ncsc1-c1ccc([C@H](C)NC(=O)[C@@H]2C[C@@H](O)CN2C(=O)[C@@H](NC(=O)Cn2cc(-c3ccc4cc(O)c(N5CC(=O)NS5(=O)=O)c(F)c4c3)cn2)C(C)(C)C)cc1 | -3%

target: T1, von Hippel-Lindau disease tumor suppressor/Tyrosine-protein phosphatase non-receptor type 2; assay: PROTAC activity at VHL/PTPN2 in human Jurkat cells assessed as induction of PTPN2 degradation at 1 uM by Western blot analysis relative to control; type: cell-based
Target sequence in this assay (P17706 whole entry, looked up): as the sequence (P17706 whole entry, looked up) above
Target sequence in this assay (P40337 whole entry, looked up): as the sequence (P40337 whole entry, looked up) above

SMILES | Activity
Cc1ncsc1-c1ccc([C@H](C)NC(=O)[C@@H]2C[C@@H](O)CN2C(=O)[C@@H](NC(=O)CCNC2CCN(C(=O)Cn3cc(-c4ccc5cc(O)c(N6CC(=O)NS6(=O)=O)c(F)c5c4)cn3)CC2)C(C)(C)C)cc1 | 35%
Cc1ncsc1-c1ccc([C@H](C)NC(=O)[C@@H]2C[C@@H](O)CN2C(=O)[C@@H](NC(=O)CNC2CCN(C(=O)Cn3cc(-c4ccc5cc(O)c(N6CC(=O)NS6(=O)=O)c(F)c5c4)cn3)CC2)C(C)(C)C)cc1 | 72%
Cc1ncsc1-c1ccc([C@H](C)NC(=O)[C@@H]2C[C@@H](O)CN2C(=O)[C@@H](NC(=O)c2cn(CCCNC(=O)Cn3cc(-c4ccc5cc(O)c(N6CC(=O)NS6(=O)=O)c(F)c5c4)cn3)nn2)C(C)(C)C)cc1 | 2%
Cc1ncsc1-c1ccc([C@H](C)NC(=O)[C@@H]2C[C@@H](O)CN2C(=O)[C@@H](NC(=O)CNC(=O)Cn2cc(-c3ccc4cc(O)c(N5CC(=O)NS5(=O)=O)c(F)c4c3)cn2)C(C)(C)C)cc1 | 33%
Cc1ncsc1-c1ccc([C@H](C)NC(=O)[C@@H]2C[C@@H](O)CN2C(=O)[C@@H](NC(=O)CCCCCCNC(=O)Cn2cc(-c3ccc4cc(O)c(N5CC(=O)NS5(=O)=O)c(F)c4c3)cn2)C(C)(C)C)cc1 | 84%
Cc1ncsc1-c1ccc([C@H](C)NC(=O)[C@@H]2C[C@@H](O)CN2C(=O)[C@@H](NC(=O)CCCCCCCCNC(=O)Cn2cc(-c3ccc4cc(O)c(N5CC(=O)NS5(=O)=O)c(F)c4c3)cn2)C(C)(C)C)cc1 | 60%
Cc1ncsc1-c1ccc([C@H](C)NC(=O)[C@@H]2C[C@@H](O)CN2C(=O)[C@@H](NC(=O)CCCNC(=O)Cn2cc(-c3ccc4cc(O)c(N5CC(=O)NS5(=O)=O)c(F)c4c3)cn2)C(C)(C)C)cc1 | 81%
Cc1ncsc1-c1ccc([C@H](C)NC(=O)[C@@H]2C[C@@H](O)CN2C(=O)[C@@H](NC(=O)CCCCNC(=O)Cn2cc(-c3ccc4cc(O)c(N5CC(=O)NS5(=O)=O)c(F)c4c3)cn2)C(C)(C)C)cc1 | 77%
Cc1ncsc1-c1ccc([C@H](C)NC(=O)[C@@H]2C[C@@H](O)CN2C(=O)[C@@H](NC(=O)Cn2cc(-c3ccc4cc(O)c(N5CC(=O)NS5(=O)=O)c(F)c4c3)cn2)C(C)(C)C)cc1 | -8%

target: T1, von Hippel-Lindau disease tumor suppressor/Tyrosine-protein phosphatase non-receptor type 2; assay: PROTAC activity at VHL/PTPN2 in human Jurkat cells assessed as induction of PTPN2 degradation at 10 uM by Western blot analysis relative to control; type: cell-based
Target sequence in this assay (P17706 whole entry, looked up): as the sequence (P17706 whole entry, looked up) above
Target sequence in this assay (P40337 whole entry, looked up): as the sequence (P40337 whole entry, looked up) above

SMILES | Activity
Cc1ncsc1-c1ccc([C@H](C)NC(=O)[C@@H]2C[C@@H](O)CN2C(=O)[C@@H](NC(=O)CCNC2CCN(C(=O)Cn3cc(-c4ccc5cc(O)c(N6CC(=O)NS6(=O)=O)c(F)c5c4)cn3)CC2)C(C)(C)C)cc1 | 85%
Cc1ncsc1-c1ccc([C@H](C)NC(=O)[C@@H]2C[C@@H](O)CN2C(=O)[C@@H](NC(=O)CNC2CCN(C(=O)Cn3cc(-c4ccc5cc(O)c(N6CC(=O)NS6(=O)=O)c(F)c5c4)cn3)CC2)C(C)(C)C)cc1 | 99%
Cc1ncsc1-c1ccc([C@H](C)NC(=O)[C@@H]2C[C@@H](O)CN2C(=O)[C@@H](NC(=O)c2cn(CCCNC(=O)Cn3cc(-c4ccc5cc(O)c(N6CC(=O)NS6(=O)=O)c(F)c5c4)cn3)nn2)C(C)(C)C)cc1 | 62%
Cc1ncsc1-c1ccc([C@H](C)NC(=O)[C@@H]2C[C@@H](O)CN2C(=O)[C@@H](NC(=O)CNC(=O)Cn2cc(-c3ccc4cc(O)c(N5CC(=O)NS5(=O)=O)c(F)c4c3)cn2)C(C)(C)C)cc1 | 91%
Cc1ncsc1-c1ccc([C@H](C)NC(=O)[C@@H]2C[C@@H](O)CN2C(=O)[C@@H](NC(=O)CCCCCCNC(=O)Cn2cc(-c3ccc4cc(O)c(N5CC(=O)NS5(=O)=O)c(F)c4c3)cn2)C(C)(C)C)cc1 | 99%
Cc1ncsc1-c1ccc([C@H](C)NC(=O)[C@@H]2C[C@@H](O)CN2C(=O)[C@@H](NC(=O)CCCCCCCCNC(=O)Cn2cc(-c3ccc4cc(O)c(N5CC(=O)NS5(=O)=O)c(F)c4c3)cn2)C(C)(C)C)cc1 | 94%
Cc1ncsc1-c1ccc([C@H](C)NC(=O)[C@@H]2C[C@@H](O)CN2C(=O)[C@@H](NC(=O)CCCNC(=O)Cn2cc(-c3ccc4cc(O)c(N5CC(=O)NS5(=O)=O)c(F)c4c3)cn2)C(C)(C)C)cc1 | 98%
Cc1ncsc1-c1ccc([C@H](C)NC(=O)[C@@H]2C[C@@H](O)CN2C(=O)[C@@H](NC(=O)CCCCNC(=O)Cn2cc(-c3ccc4cc(O)c(N5CC(=O)NS5(=O)=O)c(F)c4c3)cn2)C(C)(C)C)cc1 | 92%
Cc1ncsc1-c1ccc([C@H](C)NC(=O)[C@@H]2C[C@@H](O)CN2C(=O)[C@@H](NC(=O)Cn2cc(-c3ccc4cc(O)c(N5CC(=O)NS5(=O)=O)c(F)c4c3)cn2)C(C)(C)C)cc1 | -53%

target: T1, von Hippel-Lindau disease tumor suppressor/Tyrosine-protein phosphatase non-receptor type 2; assay: PROTAC activity at VHL/PTPN2 in human Jurkat cells assessed as induction of PTPN2 degradation by Western blot analysis; type: cell-based
Target sequence in this assay (P17706 whole entry): as the sequence (P17706 whole entry, looked up) above
Target sequence in this assay (P40337 whole entry): as the sequence (P40337 whole entry, looked up) above

SMILES | EC50
Cc1ncsc1-c1ccc([C@H](C)NC(=O)[C@@H]2C[C@@H](O)CN2C(=O)[C@@H](NC(=O)CCCCCCNC(=O)Cn2cc(-c3ccc4cc(O)c(N5CC(=O)NS5(=O)=O)c(F)c4c3)cn2)C(C)(C)C)cc1 | 94 nM

target: von Hippel-Lindau disease tumor suppressor/Tyrosine-protein phosphatase non-receptor type 1 (Homo sapiens, UniProt P18031+P40337); assay: PROTAC activity at VHL/PTP1B in human Jurkat cells assessed as induction of PTP1B degradation by Western blot analysis; type: cell-based
Sequence (P18031 whole entry): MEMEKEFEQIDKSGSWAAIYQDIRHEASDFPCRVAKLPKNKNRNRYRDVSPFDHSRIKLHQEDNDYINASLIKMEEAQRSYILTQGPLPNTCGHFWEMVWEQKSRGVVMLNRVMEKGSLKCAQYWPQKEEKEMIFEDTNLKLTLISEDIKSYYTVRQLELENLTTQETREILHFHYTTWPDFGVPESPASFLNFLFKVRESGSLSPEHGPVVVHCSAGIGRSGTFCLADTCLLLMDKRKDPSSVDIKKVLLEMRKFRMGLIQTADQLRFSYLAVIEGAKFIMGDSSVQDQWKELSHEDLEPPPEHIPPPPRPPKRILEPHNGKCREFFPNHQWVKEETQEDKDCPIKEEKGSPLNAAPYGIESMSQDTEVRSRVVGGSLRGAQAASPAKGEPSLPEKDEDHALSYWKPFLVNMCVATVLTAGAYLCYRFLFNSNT
Sequence (P40337 whole entry): as the sequence (P40337 whole entry, looked up) above

SMILES | EC50
Cc1ncsc1-c1ccc([C@H](C)NC(=O)[C@@H]2C[C@@H](O)CN2C(=O)[C@@H](NC(=O)CCCCCCNC(=O)Cn2cc(-c3ccc4cc(O)c(N5CC(=O)NS5(=O)=O)c(F)c4c3)cn2)C(C)(C)C)cc1 | 142 nM

target: T1, von Hippel-Lindau disease tumor suppressor/Tyrosine-protein phosphatase non-receptor type 2; assay: PROTAC activity at VHL/PTPN2 in human Jurkat cells assessed as residual activity of PTPN2 level at 1 uM by Western blot analysis relative to control; type: cell-based
Target sequence in this assay (P17706 whole entry, looked up): as the sequence (P17706 whole entry, looked up) above
Target sequence in this assay (P40337 whole entry, looked up): as the sequence (P40337 whole entry, looked up) above

SMILES | Activity
Cc1ncsc1-c1ccc([C@H](C)NC(=O)[C@@H]2C[C@@H](O)CN2C(=O)[C@@H](NC(=O)CNC2CCN(C(=O)Cn3cc(-c4ccc5cc(O)c(N6CC(=O)NS6(=O)=O)c(F)c5c4)cn3)CC2)C(C)(C)C)cc1 | 20%
